According to patent publication US6667153B1 (priority 2000, dated 2003):
Where two headings read alike, the source gives them in different places.

Legend:
[1] = test system: E. coli GW2100/pTJgfp (umuC'-gfp fusion); conditions: for Mean fluorescence emission: 24 hours incubation
[2] = test system: E. coli GW2100/pTJgfp (umuC'::gfp); conditions: nutrient broth, FIG. 3
[3] = test system: arg-3 marker in E. coli strain GW2100/pTJgfp; conditions: for Mean revertant colony numbers: 37 parallel cultures, 4 day plate incubation

Structure (SMILES): COS(C)(=O)=O [MMS, methylmethane sulphonate]
- K.S statistic, fluorescence emission, mutagen versus the control ([1]; MMS 13 μg/ml): 3.09
- Mean fluorescence emission ([1]; MMS 13 μg/ml, 84 parallel cultures): 13.22
- K.S statistic, fluorescence emission, mutagen versus the control ([1]; MMS 325 μg/ml): 6.48
- Mean fluorescence emission ([1]; MMS 325 μg/ml, 84 parallel cultures): 36.5
- mutagenic activity by shift in mean fluorescent output per culture ([1]; MMS 325 μg/ml, 84 parallel cultures, FIG. 10): pronounced
- fluorescence level compared with the 0 dose control ([2]; MMS 13 μg/ml): no significant difference
- fluorescence level (cellular toxicity) ([2]; MMS 1300 μg/ml): lower level of fluorescence
- fluorescence level compared with the 0 dose control ([2]; MMS 325 and 650 μg/ml): dose-dependent manner
- K.S statistic, revertant colony numbers, mutagen versus the control ([3]; MMS 13 μg/ml): 2.711
- Mean revertant colony numbers ([3]; MMS 13 μg/ml): 8.84
- mutagenicity through change in culture to culture variation in mutant numbers (mean unchanged) ([3]; MMS 13 μg/ml, FIG. 8): mutagenicity is still detectable
- K.S statistic, revertant colony numbers, mutagen versus the control ([3]; MMS 325 μg/ml): 3.889
- Mean revertant colony numbers ([3]; MMS 325 μg/ml): 17.95
- response in mean number of revertant colonies per culture sample ([3]; MMS 325 μg/ml, FIG. 8): clearly positive result
